The structures appear in SMILES notation.

For assay [1], the target named is T1, Serine/threonine-protein kinase 3 (Homo sapiens) (UniProt Q13188).
T1 sequence (whole entry): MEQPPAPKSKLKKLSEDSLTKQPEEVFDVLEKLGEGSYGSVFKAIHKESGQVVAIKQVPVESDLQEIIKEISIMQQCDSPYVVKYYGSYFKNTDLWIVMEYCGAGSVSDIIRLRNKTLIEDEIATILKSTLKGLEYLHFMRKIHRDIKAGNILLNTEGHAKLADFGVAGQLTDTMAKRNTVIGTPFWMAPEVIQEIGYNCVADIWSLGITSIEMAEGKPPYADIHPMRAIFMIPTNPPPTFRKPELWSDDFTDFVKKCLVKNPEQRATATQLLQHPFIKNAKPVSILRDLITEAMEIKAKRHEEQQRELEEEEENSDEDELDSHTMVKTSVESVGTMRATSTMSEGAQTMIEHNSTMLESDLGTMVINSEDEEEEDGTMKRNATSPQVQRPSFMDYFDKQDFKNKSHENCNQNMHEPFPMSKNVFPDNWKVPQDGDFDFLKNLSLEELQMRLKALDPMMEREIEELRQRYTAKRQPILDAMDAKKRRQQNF
The assay can be described thus: Inhibition of human MST2/STK3 using myelin basic protein as substrate at 1 uM in presence of 32P-ATP by Hotspot assay relative to control; values are per cent of control.

The target of assay [2] is Cyclin-dependent kinase 5/CDK5 activator 1 (Homo sapiens) (UniProt Q00535+Q15078). Briefly: Inhibition of human CDK5/p25 using RB Protein as substrate at 1 uM in presence of 32P-ATP by Hotspot assay relative to control; values are per cent of control.
Cyclin-dependent kinase 5/CDK5 activator 1 (Homo sapiens), sequence (Q00535 whole entry): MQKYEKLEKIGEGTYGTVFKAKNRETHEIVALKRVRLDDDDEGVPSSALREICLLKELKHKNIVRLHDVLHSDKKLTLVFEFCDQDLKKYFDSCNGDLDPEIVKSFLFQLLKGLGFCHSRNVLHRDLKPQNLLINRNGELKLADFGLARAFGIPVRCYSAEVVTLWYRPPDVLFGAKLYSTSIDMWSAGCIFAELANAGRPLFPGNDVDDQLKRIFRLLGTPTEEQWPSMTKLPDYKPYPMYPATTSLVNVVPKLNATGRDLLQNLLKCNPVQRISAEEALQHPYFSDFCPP
Cyclin-dependent kinase 5/CDK5 activator 1 (Homo sapiens), sequence (Q15078 99-307 partner limits assumed): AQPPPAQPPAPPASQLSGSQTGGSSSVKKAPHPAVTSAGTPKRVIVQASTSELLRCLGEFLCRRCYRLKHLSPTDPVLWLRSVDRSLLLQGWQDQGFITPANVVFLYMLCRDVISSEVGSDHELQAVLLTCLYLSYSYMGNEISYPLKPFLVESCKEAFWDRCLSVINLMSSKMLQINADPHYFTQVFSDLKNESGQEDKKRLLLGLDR
In assay [3] the target is T2, Activin receptor type-1B (Homo sapiens) (UniProt P36896).
T2 sequence (whole entry): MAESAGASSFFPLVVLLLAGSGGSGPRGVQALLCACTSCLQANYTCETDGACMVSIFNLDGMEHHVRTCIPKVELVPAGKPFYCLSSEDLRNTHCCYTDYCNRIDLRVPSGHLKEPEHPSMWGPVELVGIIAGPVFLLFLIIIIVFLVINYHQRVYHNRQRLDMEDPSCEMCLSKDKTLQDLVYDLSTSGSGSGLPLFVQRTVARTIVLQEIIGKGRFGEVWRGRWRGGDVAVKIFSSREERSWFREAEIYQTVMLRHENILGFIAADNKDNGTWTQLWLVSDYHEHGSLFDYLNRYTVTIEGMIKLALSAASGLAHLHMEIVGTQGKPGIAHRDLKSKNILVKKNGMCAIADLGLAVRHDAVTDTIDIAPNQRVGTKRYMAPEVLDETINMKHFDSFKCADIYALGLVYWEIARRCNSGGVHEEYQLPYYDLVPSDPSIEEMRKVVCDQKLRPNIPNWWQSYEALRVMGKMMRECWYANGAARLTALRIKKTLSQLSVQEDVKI
The assay can be described thus: Residual activity of human ALK4/ACVR1B using casein as substrate at 1 uM in presence of 32P-ATP by Hotspot assay relative to control.

For assay [4], the target named is Tyrosine-protein kinase JAK2 (Homo sapiens) (UniProt O60674). Briefly: Inhibition of human JAK2 using poly[Glu:Tyr] (4:1) as substrate at 1 uM in presence of 32P-ATP by Hotspot assay relative to control; values are per cent of control.
Tyrosine-protein kinase JAK2 (Homo sapiens), sequence (O60674 whole entry): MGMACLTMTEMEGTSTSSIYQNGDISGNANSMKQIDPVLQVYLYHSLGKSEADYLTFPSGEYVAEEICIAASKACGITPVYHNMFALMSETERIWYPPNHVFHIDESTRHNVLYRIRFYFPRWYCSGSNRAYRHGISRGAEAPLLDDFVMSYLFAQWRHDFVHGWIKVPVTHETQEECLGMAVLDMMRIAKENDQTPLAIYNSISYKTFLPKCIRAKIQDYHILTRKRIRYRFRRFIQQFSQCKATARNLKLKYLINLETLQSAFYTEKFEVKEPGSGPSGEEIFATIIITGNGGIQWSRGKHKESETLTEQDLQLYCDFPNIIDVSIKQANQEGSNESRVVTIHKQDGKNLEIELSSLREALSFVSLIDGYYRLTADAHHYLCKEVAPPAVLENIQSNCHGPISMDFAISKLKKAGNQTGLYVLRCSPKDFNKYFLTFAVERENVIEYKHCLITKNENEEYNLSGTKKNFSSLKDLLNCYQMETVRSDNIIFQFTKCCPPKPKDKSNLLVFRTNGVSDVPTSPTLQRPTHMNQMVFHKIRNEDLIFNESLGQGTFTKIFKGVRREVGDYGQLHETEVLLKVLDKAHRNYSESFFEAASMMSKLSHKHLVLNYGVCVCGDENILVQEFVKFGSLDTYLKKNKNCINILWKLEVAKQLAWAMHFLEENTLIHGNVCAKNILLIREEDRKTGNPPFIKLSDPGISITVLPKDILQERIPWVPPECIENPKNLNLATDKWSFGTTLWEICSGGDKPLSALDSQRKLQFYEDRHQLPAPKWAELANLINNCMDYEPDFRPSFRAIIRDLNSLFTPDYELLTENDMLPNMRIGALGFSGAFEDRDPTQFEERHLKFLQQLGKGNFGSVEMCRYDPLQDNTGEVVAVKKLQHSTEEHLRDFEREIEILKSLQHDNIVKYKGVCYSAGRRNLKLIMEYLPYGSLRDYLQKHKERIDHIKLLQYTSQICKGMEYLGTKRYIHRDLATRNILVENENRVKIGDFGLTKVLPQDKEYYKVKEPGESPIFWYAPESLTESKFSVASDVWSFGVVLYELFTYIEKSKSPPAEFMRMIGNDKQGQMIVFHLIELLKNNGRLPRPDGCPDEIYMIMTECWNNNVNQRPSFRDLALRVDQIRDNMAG
Assay [5] addresses T3, Aurora kinase A (Homo sapiens) (UniProt O14965).
T3 sequence (whole entry): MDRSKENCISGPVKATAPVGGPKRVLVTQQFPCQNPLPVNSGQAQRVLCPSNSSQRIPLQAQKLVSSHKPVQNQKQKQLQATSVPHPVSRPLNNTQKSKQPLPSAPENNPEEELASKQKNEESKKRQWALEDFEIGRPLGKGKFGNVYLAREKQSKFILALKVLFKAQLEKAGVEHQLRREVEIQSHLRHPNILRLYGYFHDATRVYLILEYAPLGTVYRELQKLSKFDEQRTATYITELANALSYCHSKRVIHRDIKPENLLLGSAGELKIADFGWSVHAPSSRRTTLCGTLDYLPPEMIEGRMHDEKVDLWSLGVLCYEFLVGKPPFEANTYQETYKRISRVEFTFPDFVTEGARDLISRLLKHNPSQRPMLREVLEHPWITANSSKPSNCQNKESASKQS
Briefly: Inhibition of human Aurora A using H-LRRASLG as substrate at 1 uM in presence of 32P-ATP by Hotspot assay relative to control; values are per cent of control.

Assay [6] addresses T4, Ephrin type-B receptor 1 (Homo sapiens) (UniProt P54762).
T4 sequence (whole entry): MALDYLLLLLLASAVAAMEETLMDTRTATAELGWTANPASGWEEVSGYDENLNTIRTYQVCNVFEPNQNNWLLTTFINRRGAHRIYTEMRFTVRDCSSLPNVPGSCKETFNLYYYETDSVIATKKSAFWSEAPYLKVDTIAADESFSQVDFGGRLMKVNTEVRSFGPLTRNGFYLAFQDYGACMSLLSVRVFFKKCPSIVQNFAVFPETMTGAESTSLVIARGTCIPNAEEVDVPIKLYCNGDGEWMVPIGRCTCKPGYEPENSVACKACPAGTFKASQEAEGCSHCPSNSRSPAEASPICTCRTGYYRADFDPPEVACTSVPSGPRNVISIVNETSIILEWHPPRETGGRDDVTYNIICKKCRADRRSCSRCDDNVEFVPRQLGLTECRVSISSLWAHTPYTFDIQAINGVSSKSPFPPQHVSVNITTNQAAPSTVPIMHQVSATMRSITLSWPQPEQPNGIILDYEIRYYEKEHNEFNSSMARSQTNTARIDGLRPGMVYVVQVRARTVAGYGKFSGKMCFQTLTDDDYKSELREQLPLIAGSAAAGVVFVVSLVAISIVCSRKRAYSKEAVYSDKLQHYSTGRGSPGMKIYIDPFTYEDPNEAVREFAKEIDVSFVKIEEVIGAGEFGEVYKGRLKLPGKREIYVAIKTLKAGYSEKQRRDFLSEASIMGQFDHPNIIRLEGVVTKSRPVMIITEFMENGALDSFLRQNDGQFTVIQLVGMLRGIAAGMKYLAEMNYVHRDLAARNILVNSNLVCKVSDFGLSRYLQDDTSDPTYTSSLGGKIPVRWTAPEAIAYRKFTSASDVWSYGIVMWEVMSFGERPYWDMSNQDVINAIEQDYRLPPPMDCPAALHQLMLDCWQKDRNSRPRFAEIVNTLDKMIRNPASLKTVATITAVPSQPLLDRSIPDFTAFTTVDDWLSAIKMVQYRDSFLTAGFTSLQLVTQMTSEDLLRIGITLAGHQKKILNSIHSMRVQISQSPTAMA
Briefly: Inhibition of human EPHB1 using poly[Glu:Tyr] (4:1) as substrate at 1 uM in presence of 32P-ATP by Hotspot assay relative to control; values are per cent of control.

`CNC(=O)c1ccc2c(c1)ncn2-c1ccc(CC(=O)OC(C)(C)C)cc1`: the residual activity in assay [1] was determined as 95.2%; in assay [2], 93.1%; in assay [3], 93.9%; in assay [4], 95.7%; in assay [5], 101%; in assay [6] it was 104%.
Regarding `Cc1cc(-c2cnc(N)c3c(-c4ccc5scnc5c4)csc23)n(C)n1`, the residual activity in assay [1] was 93.8%; in assay [2], 96.7%; in assay [3] it was 96.8%; in assay [4], 89.8%; in assay [5], 99%; in assay [6], 36.8%.
Take `CC(C)S(=O)(=O)c1ccc2nccc(Nc3ccc4scnc4c3)c2c1`: the residual activity in assay [1] was 101%; in assay [2], 99.9%; in assay [3], 100%; in assay [4], 102%; in assay [5] it was 95.9%; in assay [6], 79%.

Values taken from ChEMBL document CHEMBL5649166, “RIP3 induces apoptosis independent of pronecrotic kinase activity” (Mol Cell, 2014).
